Here are results for three compounds from ChEMBL document CHEMBL6153065, “Heterologous Expression and Characterization of Estercin A, a Class II Lanthipeptide Derived from Clostridium estertheticum CF016, with Antimicrobial Activity against Clinically Relevant Pathogens” (2025).

Structures are written as SMILES. In brackets after ≈: the same amount, converted by molar mass. Activity calls are given as the source filed them.

Test [1] has as its system Lactococcus lactis. As to the kind of experiment: Antibacterial activity against Lactococcus lactis MG1363 assessed as inhibition of bacterial growth at 1 mg/ml incubated for 16 hrs by agar well diffusion assay relative to control. The format is functional.
The test system of test [2] is Staphylococcus aureus. As to the kind of experiment: Antibacterial activity against Staphylococcus aureus LMG15975 assessed as inhibition of bacterial growth at 1 mg/ml incubated for 16 hrs by agar well diffusion assay relative to control. Type of test: functional. For orientation: In agar diffusion tests the substance spreads into inoculated agar from a disc or well.

For test [3], the system named is Bacillus cereus. As to the kind of experiment: Antibacterial activity against Bacillus cereus ATCC14579 assessed as inhibition of bacterial growth at 1 mg/ml incubated for 16 hrs by agar well diffusion assay relative to control. Type of test: functional.
Test [4] relates to Bacillus cereus. As to the kind of experiment: Antibacterial activity against Bacillus cereus ATCC14579 assessed as inhibition of bacterial growth by measuring increased activity more than estercin A (100%) at 1 mg/ml incubated for 16 hrs by agar well diffusion assay. The format is functional. Further details: scale not given: the % may be the effect or the level left.
Test [5] relates to Lactococcus lactis. As to the kind of experiment: Antibacterial activity against Lactococcus lactis MG1363 assessed as inhibition of bacterial growth by measuring increased activity more than estercin A (100%) at 1 mg/ml incubated for 16 hrs by agar well diffusion assay. The format is functional. Details: scale not given: the % may be the effect or the level left.
The subject of test [6] is Enterococcus faecium. As to the kind of experiment: Antibacterial activity against vancomycin-resistant Enterococcus faecium LMG16003 assessed as bacterial growth inhibition incubated for 18 hrs by Mueller-Hinton broth based doubling dilution method. Type of test: functional.
The test system of test [7] is Clostridium perfringens. As to the kind of experiment: Antibacterial activity against Clostridium perfringens CECT376 assessed as bacterial growth inhibition incubated for 18 hrs by Mueller-Hinton broth based doubling dilution method. The format is functional.
For test [8], the system named is Clostridium botulinum. As to the kind of experiment: Antibacterial activity against Clostridium botulinum CECT551 assessed as bacterial growth inhibition incubated for 18 hrs by Mueller-Hinton broth based doubling dilution method. Type of test: functional.
The subject of test [9] is Lactococcus lactis. As to the kind of experiment: Antibacterial activity against Lactococcus lactis MG1363 at 1 mg/ml incubated at pH 4 for 4 hrs. The format is functional, organism-based.
The subject of test [10] is Enterococcus faecalis. As to the kind of experiment: Antibacterial activity against vancomycin-resistant Enterococcus faecalis LMG16216 assessed as bacterial growth inhibition incubated for 18 hrs by Mueller-Hinton broth based doubling dilution method. The format is functional.
The test system of test [11] is Listeria monocytogenes. As to the kind of experiment: Antibacterial activity against Listeria monocytogenes LMG10470 assessed as bacterial growth inhibition incubated for 18 hrs by Mueller-Hinton broth based doubling dilution method. The format is functional.
The subject of test [12] is Lactococcus lactis. As to the kind of experiment: Antibacterial activity against Lactococcus lactis MG1363 at 1 mg/ml incubated at pH 2 for 4 hrs. The format is functional, organism-based.
The subject of test [13] is Lactococcus lactis. As to the kind of experiment: Antibacterial activity against Lactococcus lactis MG1363 assessed as bacterial death at 10 times of MIC by time killing assay. The format is functional, organism-based.
The test system of test [14] is Bacillus cereus. As to the kind of experiment: Antibacterial activity against Bacillus cereus ATCC14579 assessed as bacterial growth inhibition incubated for 18 hrs by Mueller-Hinton broth based doubling dilution method. The format is functional.
Test [15] deals with Clostridium tetani. As to the kind of experiment: Antibacterial activity against Clostridium tetani CECT4629 assessed as bacterial growth inhibition incubated for 18 hrs by Mueller-Hinton broth based doubling dilution method. Type of test: functional.
Test [16] has as its system Lactococcus lactis. As to the kind of experiment: Antibacterial activity against Lactococcus lactis MG1363 assessed as bacterial growth inhibition incubated for 18 hrs by Mueller-Hinton broth based doubling dilution method. The format is functional.
The test system of test [17] is Cell membrane. As to the kind of experiment: Induction of membrane permeabilization in Lactococcus lactis MG1363 assessed as pore forming ability by measuring increase in red fluorescence at 2 times MIC measured after 15 mins by SYTO-9 Green dye/red PI staining based fluorescence microscopy. The format is subcellular.
Test [18] concerns Lactococcus lactis. As to the kind of experiment: Antibacterial activity against Lactococcus lactis MG1363 at 1 mg/ml incubated at pH 7 for 4 hrs. Type of test: functional, organism-based.
Test [19] relates to Lactococcus lactis. As to the kind of experiment: Antibacterial activity against Lactococcus lactis MG1363 at 1 mg/ml incubated at pH 10 for 4 hrs. Type of test: functional, organism-based.
Test [20] relates to Staphylococcus aureus. As to the kind of experiment: Antibacterial activity against methicillin-resistant Staphylococcus aureus LMG15975 assessed as bacterial growth inhibition incubated for 18 hrs by Mueller-Hinton broth based doubling dilution method. The format is functional.
Test [21] deals with Staphylococcus aureus. As to the kind of experiment: Antibacterial activity against Staphylococcus aureus LMG10147 assessed as bacterial growth inhibition incubated for 18 hrs by Mueller-Hinton broth based doubling dilution method. Type of test: functional.

Take `C=C1NC(=O)[C@H](C(C)C)NC(=O)[C@@H]2CSC[C@@H](C(=O)N[C@@H](CCCCN)C(=O)O)NC(=O)[C@H](CSC[C@H]3NC(=O)[C@H](Cc4ccccc4)NC(=O)[C@@H](NC(=O)[C@@H](NC(=O)[C@@H](NC(=O)[C@@H](NC(=O)CNC(=O)CNC(=O)CN)C(C)C)[C@@H](C)CC)[C@@H](C)O)CSC[C@H](NC(=O)[C@H](CCC(=O)O)NC(=O)[C@H](Cc4c[nH]cn4)NC3=O)C(=O)N[C@@H](Cc3ccc(O)cc3)C(=O)N[C@@H](Cc3ccc(O)cc3)C(=O)N[C@@H](CC(N)=O)C(=O)N2)NC(=O)[C@H]([C@@H](C)O)NC(=O)CNC(=O)[C@H](Cc2c[nH]c3ccccc23)NC(=O)[C@H](CO)NC(=O)[C@H](C)NC(=O)[C@@H]2CCCN2C1=O`: the outcome in test [1], in [2] and in [3] was inactive.

Turning to `C=C1NC(=O)[C@H](C(C)C)NC(=O)[C@@H]2CSC[C@@H](C(=O)N[C@@H](CCCCN)C(=O)O)NC(=O)[C@H](CSC[C@@H]3NC(=O)[C@H](Cc4ccccc4)NC(=O)[C@@H](NC(=O)[C@@H](NC(=O)[C@@H](NC(=O)[C@@H](NC(=O)CNC(=O)[C@H](CC(N)=O)NC(=O)CN)C(C)C)[C@@H](C)CC)[C@@H](C)O)CSC[C@H](NC(=O)[C@H](CCC(=O)O)NC(=O)[C@H](Cc4c[nH]cn4)NC3=O)C(=O)N[C@@H](Cc3ccc(O)cc3)C(=O)N[C@@H](Cc3ccc(O)cc3)C(=O)N[C@@H](CC(N)=O)C(=O)N2)NC(=O)CNC(=O)CNC(=O)[C@H](Cc2c[nH]c3ccccc23)NC(=O)[C@H](CO)NC(=O)[C@H](C)NC(=O)[C@@H]2CCCN2C1=O`, the Activity in test [4] was 20%; in test [5], 20%; in test [2] it was 100%.

Turning to `C=C(NC(=O)[C@@H](NC(=O)[C@H](Cc1c[nH]cn1)NC(=O)[C@@H](NC(=O)[C@H](CO)NC(=O)[C@@H]1CS[C@@H](C)[C@H]2NC(=O)C(=C)NC(=O)[C@H](NC(=O)[C@H](CCCCN)NC(=O)[C@H](CCSC)NC(=O)[C@H](CC(N)=O)NC(=O)[C@@H]3CS[C@@H](C)[C@@H](NC(=O)[C@H](CCCNN)NC(=O)[C@@H]4CS[C@@H](C)[C@@H](NC(=O)[C@@H]5CSC[C@@H](NC(=O)/C(=C\C)NC(=O)[C@@H](N)[C@@H](C)CC)C(=O)N[C@@H]([C@@H](C)CC)C(=O)NC(=C)C(=O)N[C@@H]([C@@H](C)CC)C(=O)N5)C(=O)N5CCC[C@H]5C(=O)NCC(=O)N4)C(=O)NCC(=O)N[C@@H](C)C(=O)N[C@@H]([C@@H](C)CC)C(=O)N[C@@H](CCSC)C(=O)NCC(=O)N3)[C@H](C)SC[C@H](NC2=O)C(=O)N[C@@H](Cc2c[nH]cn2)C(=O)N1)[C@@H](C)CC)C(C)C)C(=O)N[C@@H](CCCCN)C(=O)O`, the minimum inhibitory concentration (MIC) in test [6] worked out at 4 µg/mL (≈ 1.19 µM); in [7] it was 1 µg/mL (≈ 0.298 µM); in [8], 4 µg/mL (≈ 1.19 µM); in test [10], 4 µg/mL (≈ 1.19 µM); in test [11], 8 µg/mL (≈ 2.39 µM); in test [14] it was 4 µg/mL (≈ 1.19 µM). The MIC was 4 µg/mL (≈ 1.19 µM) in test [15], 0.016 µg/mL (≈ 0.00477 µM) in test [16], 4 µg/mL (≈ 1.19 µM) in test [20] and 16 µg/mL (≈ 4.77 µM) in test [21]. For the same compound, the outcome in test [9], in test [12], in [17], in test [18] and in test [19] was Active. Also, the Activity entry in [13] is recorded as “Active; Rapid Cell Death Observed”.

As a reminder, the MIC is the smallest concentration in the dilution series that meets the test's criterion for growth inhibition.
